{"source": "patent US20130005568A1", "about": "“SAFENED HERBICIDAL MIXTURES” (E.I. DU PONT DE NEMOURS AND COMPANY, priority 2011, published 2013)", "key": {"Bermudagrass": {"system": "Bermudagrass", "test": "Test G: turf grass and weed postemergence plant response rating", "assay_type": "in vivo, Cynodon dactylon (L.) Pers.", "details": "Bermudagrass, postemergence, greenhouse, three weeks, 0-100 scale", "source_text": "(§1) For all of the following biological tests, plant response ratings were based on a 0-100 scale where zero is growth equivalent to that of untreated plants (no plant response) and 100 represents no additional growth occurring after herbicide treatment.\nPlants of the turf grass species: zoysia (Zoysia japonica Steud.), bermudagrass (Cynodon dactylon (L.) Pers.), tall fescue (Festuca arundinacea Shreib.), creeping bentgrass (Agrostis stoonoifera L.), perennial ryegrass (Lolium perenne L.) and hard fescue (Festuca species) were grown under greenhouse conditions for four months. Plants were clipped as needed to plant heights of 5-10 cm. […] Herbicide mixtures were formulated, dissolved/dispersed in water containing 0.25% non-ionic surfactant, and sprayed postemergence to these turf grasses and weeds. Treated plants were grown under greenhouse conditions for three weeks before visual evaluations of plant responses were recorded."}, "Annual bluegrass": {"system": "Annual bluegrass", "test": "Test G: turf grass and weed postemergence plant response rating", "assay_type": "in vivo, Poa annua L.", "details": "Annual bluegrass, postemergence, greenhouse, three weeks, 0-100 scale", "source_text": "as §1\n(§2) Plants of the turf grass species: zoysia (Zoysia japonica Steud.), bermudagrass (Cynodon dactylon (L.) Pers.), tall fescue (Festuca arundinacea Shreib.), creeping bentgrass (Agrostis stoonoifera L.), perennial ryegrass (Lolium perenne L.) and hard fescue (Festuca species) were grown under greenhouse conditions for four months. Plants were clipped as needed to plant heights of 5-10 cm. Weeds typically found in turf: annual bluegrass (Poa annua L.), common chickweed (Stellaria media (L.) Vill.), large crabgrass (Digitaria sanguinales (L.) Scop.), dandelion (Taraxacum officinale Weber in Wiggers), goosegrass (Eleusine indica (L.) Gaertn.), henbit (Lamium amplexicaule L.), venice mallow (Hibiscus trionium L.) and purple nutsedge (Cyperus rotundus L.) were also grown under greenhouse conditions so that plants were 5-20 cm tall when they were treated. Herbicide mixtures were formulated, dissolved/dispersed in water containing 0.25% non-ionic surfactant, and sprayed postemergence to these turf grasses and weeds. Treated plants were grown under greenhouse conditions for three weeks before visual evaluations of plant responses were recorded."}, "Chickweed": {"system": "Chickweed", "test": "Test G: turf grass and weed postemergence plant response rating", "assay_type": "in vivo, Stellaria media (L.) Vill.", "details": "Chickweed, postemergence, greenhouse, three weeks, 0-100 scale", "source_text": "as §1, §2"}, "Large crabgrass": {"system": "Large crabgrass", "test": "Test G: turf grass and weed postemergence plant response rating", "assay_type": "in vivo, Digitaria sanguinales (L.) Scop.", "details": "Large crabgrass, postemergence, greenhouse, three weeks, 0-100 scale", "source_text": "as §1, §2"}, "Dandelion": {"system": "Dandelion", "test": "Test G: turf grass and weed postemergence plant response rating", "assay_type": "in vivo, Taraxacum officinale Weber in Wiggers", "details": "Dandelion, postemergence, greenhouse, three weeks, 0-100 scale", "source_text": "as §1, §2"}, "Goosegrass": {"system": "Goosegrass", "test": "Test G: turf grass and weed postemergence plant response rating", "assay_type": "in vivo, Eleusine indica (L.) Gaertn.", "details": "Goosegrass, postemergence, greenhouse, three weeks, 0-100 scale", "source_text": "as §1, §2"}, "Henbit": {"system": "Henbit", "test": "Test G: turf grass and weed postemergence plant response rating", "assay_type": "in vivo, Lamium amplexicaule L.", "details": "Henbit, postemergence, greenhouse, three weeks, 0-100 scale", "source_text": "as §1, §2"}, "Venice mallow": {"system": "Venice mallow", "test": "Test G: turf grass and weed postemergence plant response rating", "assay_type": "in vivo, Hibiscus trionium L.", "details": "Venice mallow, postemergence, greenhouse, three weeks, 0-100 scale", "source_text": "as §1, §2"}, "Purple nutsedge": {"system": "Purple nutsedge", "test": "Test G: turf grass and weed postemergence plant response rating", "assay_type": "in vivo, Cyperus rotundus L.", "details": "Purple nutsedge, postemergence, greenhouse, three weeks, 0-100 scale", "source_text": "as §1, §2"}, "[1]": {"system": "Pioneer 39K40 hybrid maize", "test": "Test A: visual plant response rating, postemergence herbicide treatments alone and with Compound 1", "assay_type": "in vivo, Zea mays L. spp. indentata Sturt.", "details": "in vivo", "method": "as §1\nPioneer 39K40 hybrid maize used in this test (and also Tests B and C) is particularly sensitive to herbicides that inhibit the acetohydroxy acid synthase enzyme. Herbicide mixtures were dissolved/dispersed in a non-phytotoxic liquid carrier and were sprayed postemergence to Pioneer 39K40 hybrid maize (Zea mays L. spp. indentata Sturt.) in the third collar growth stage (extended leaf height was 50-60 cm). Treated plants were grown under greenhouse conditions for two weeks before visual evaluations of plant responses were recorded."}, "[2]": {"details": "herbicide 200 g ai/ha + Compound 1 125 g ai/ha"}, "[3]": {"details": "herbicide 80 g ai/ha + Compound 1 125 g ai/ha"}}}
{"molecule": "Nc1nc(C2CC2)nc(C(=O)[O-])c1Cl.[K+]", "note": "[Aminocyclopyrachlor-potassium, aminocyclopyrachlor]", "values": [{"measurement": "Observed Response, Herbicide mixture with Compound 1", "setting": "Bermudagrass; [2]", "result": 0}, {"measurement": "Observed Response, Herbicide alone", "setting": "Bermudagrass; herbicide 200 g ai/ha", "result": 20}, {"measurement": "Observed Response, Herbicide mixture with Compound 1", "setting": "Annual bluegrass; [2]", "result": 0}, {"measurement": "Observed Response, Herbicide alone", "setting": "Annual bluegrass; herbicide 200 g ai/ha", "result": 20}, {"measurement": "Observed Response, Herbicide mixture with Compound 1", "setting": "Chickweed; [2]", "result": 100}, {"measurement": "Observed Response, Herbicide alone", "setting": "Chickweed; herbicide 200 g ai/ha", "result": 100}, {"measurement": "Observed Response, Herbicide mixture with Compound 1", "setting": "Large crabgrass; [2]", "result": 70}, {"measurement": "Observed Response, Herbicide alone", "setting": "Large crabgrass; herbicide 200 g ai/ha", "result": 80}, {"measurement": "Observed Response, Herbicide mixture with Compound 1", "setting": "Dandelion; [2]", "result": 100}, {"measurement": "Observed Response, Herbicide alone", "setting": "Dandelion; herbicide 200 g ai/ha", "result": 100}, {"measurement": "Observed Response, Herbicide mixture with Compound 1", "setting": "Goosegrass; [2]", "result": 0}, {"measurement": "Observed Response, Herbicide alone", "setting": "Goosegrass; herbicide 200 g ai/ha", "result": 50}, {"measurement": "Observed Response, Herbicide mixture with Compound 1", "setting": "Henbit; [2]", "result": 100}, {"measurement": "Observed Response, Herbicide alone", "setting": "Henbit; herbicide 200 g ai/ha", "result": 100}, {"measurement": "Observed Response, Herbicide mixture with Compound 1", "setting": "Venice mallow; [2]", "result": 98}, {"measurement": "Observed Response, Herbicide alone", "setting": "Venice mallow; herbicide 200 g ai/ha", "result": 100}, {"measurement": "Observed Response, Herbicide mixture with Compound 1", "setting": "Purple nutsedge; [2]", "result": 40}, {"measurement": "Observed Response, Herbicide alone", "setting": "Purple nutsedge; herbicide 200 g ai/ha", "result": 40}]}
{"molecule": "COC(=O)c1ccccc1S(=O)(=O)NC(=O)Nc1nc(C)nc(OC)n1", "note": "[Metsulfuron-methyl, metsulfuron-methyl]", "values": [{"measurement": "Observed Response, Herbicide alone", "setting": "[1]", "result": 99}, {"measurement": "Observed Response, Herbicide mixture with Compound 1", "setting": "Annual bluegrass; [3]", "result": 50}, {"measurement": "Observed Response, Herbicide alone", "setting": "Annual bluegrass; herbicide 80 g ai/ha", "result": 80}, {"measurement": "Observed Response, Herbicide mixture with Compound 1", "setting": "Chickweed; [3]", "result": 100}, {"measurement": "Observed Response, Herbicide alone", "setting": "Chickweed; herbicide 80 g ai/ha", "result": 100}, {"measurement": "Observed Response, Herbicide mixture with Compound 1", "setting": "Large crabgrass; [3]", "result": 0}, {"measurement": "Observed Response, Herbicide alone", "setting": "Large crabgrass; herbicide 80 g ai/ha", "result": 60}, {"measurement": "Observed Response, Herbicide mixture with Compound 1", "setting": "Dandelion; [3]", "result": 100}, {"measurement": "Observed Response, Herbicide alone", "setting": "Dandelion; herbicide 80 g ai/ha", "result": 100}, {"measurement": "Observed Response, Herbicide mixture with Compound 1", "setting": "Goosegrass; [3]", "result": 0}, {"measurement": "Observed Response, Herbicide alone", "setting": "Goosegrass; herbicide 80 g ai/ha", "result": 50}, {"measurement": "Observed Response, Herbicide mixture with Compound 1", "setting": "Henbit; [3]", "result": 100}, {"measurement": "Observed Response, Herbicide alone", "setting": "Henbit; herbicide 80 g ai/ha", "result": 100}, {"measurement": "Observed Response, Herbicide mixture with Compound 1", "setting": "Venice mallow; [3]", "result": 100}, {"measurement": "Observed Response, Herbicide alone", "setting": "Venice mallow; herbicide 80 g ai/ha", "result": 100}, {"measurement": "Observed Response, Herbicide mixture with Compound 1", "setting": "Purple nutsedge; [3]", "result": 20}, {"measurement": "Observed Response, Herbicide alone", "setting": "Purple nutsedge; herbicide 80 g ai/ha", "result": 60}]}
